In ChEMBL document CHEMBL1201862, “PubChem BioAssay data set” (2004):
Values joined by “and” are separate entries in the source; they are usually repeats but may differ in a detail not shown here. Identical values can stand only once. Active and inactive are the calls of the source.

Columns and labels:
[1] = molecular target: UDP-galactopyranose mutase (Mycobacterium tuberculosis, UniProt P9WIQ1); test: Inhibitors of Mycobacterium tuberculosis UDP-galactopyranose mutase (UGM) enzyme Measured in Biochemical System Using Plate Reader - 2105-02_Inhibitor_Dose_CherryPick_Activity. [Related pubchem assays (depositor defined):AID504439]
UDP-galactopyranose mutase, sequence (P9WIQ1 whole entry): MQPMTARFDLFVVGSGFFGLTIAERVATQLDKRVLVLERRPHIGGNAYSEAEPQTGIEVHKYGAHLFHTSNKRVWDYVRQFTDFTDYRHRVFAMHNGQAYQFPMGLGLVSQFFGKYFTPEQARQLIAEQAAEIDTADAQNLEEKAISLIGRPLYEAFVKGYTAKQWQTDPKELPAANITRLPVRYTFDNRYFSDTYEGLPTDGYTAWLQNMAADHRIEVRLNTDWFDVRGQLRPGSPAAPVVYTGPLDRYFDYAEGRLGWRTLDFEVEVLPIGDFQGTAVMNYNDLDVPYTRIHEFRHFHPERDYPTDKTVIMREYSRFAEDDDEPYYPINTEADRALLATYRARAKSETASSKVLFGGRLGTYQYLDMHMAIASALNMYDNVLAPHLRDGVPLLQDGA

[2] = molecular target: Genome polyprotein (Hepatitis C virus, UniProt Q2Q167); test: disruption of hepatitis C core self-association – biochemical, TR-FRET, dose response (AID 2159); parameters: species or system Hepacivirus hominis;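 further: blocks dimerization of HCV core protein measured by TR-FRET between tagged core106 pairs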
[3] = molecular target: T1, Bcl-2-like protein 10 (Homo sapiens, UniProt Q9HD36); test: Bcl-B/TR3 peptide binding disruption – biochemical, fluorescence polarization, FITC-TR3 peptide, selectivity assay for Bfl-1 inhibitor project, primary screen (AID 748);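 further: fluorescence polarization from a fluorescein-labelled TR3 peptide binding purified Bcl-B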
T1 sequence (Q9HD36 whole entry): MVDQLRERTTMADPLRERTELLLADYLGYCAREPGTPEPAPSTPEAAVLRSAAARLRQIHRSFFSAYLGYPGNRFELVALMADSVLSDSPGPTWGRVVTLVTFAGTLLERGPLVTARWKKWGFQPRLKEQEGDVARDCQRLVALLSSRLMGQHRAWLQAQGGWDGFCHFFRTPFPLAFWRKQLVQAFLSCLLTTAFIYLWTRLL

[4] = molecular target: Protein Rev (Human immunodeficiency virus type 1 group M subtype B (isolate WMJ22)(HIV-1), UniProt P05866); test: inhibitors of Rev protein–RRE RNA complex – biochemical, protein-RNA interaction, dose response (AID 842); parameters: species or system Human immunodeficiency virus 1
[5] = molecular target: T2, SUMO-activating enzyme (Homo sapiens, UniProt Q9UBT2); test: blockers of UBC9-mediated SUMO conjugation – biochemical, AlphaScreen, SUMOylation inhibitor project, confirmation (AID 2018); format: functional
T2 sequence (Q9UBE0 whole entry): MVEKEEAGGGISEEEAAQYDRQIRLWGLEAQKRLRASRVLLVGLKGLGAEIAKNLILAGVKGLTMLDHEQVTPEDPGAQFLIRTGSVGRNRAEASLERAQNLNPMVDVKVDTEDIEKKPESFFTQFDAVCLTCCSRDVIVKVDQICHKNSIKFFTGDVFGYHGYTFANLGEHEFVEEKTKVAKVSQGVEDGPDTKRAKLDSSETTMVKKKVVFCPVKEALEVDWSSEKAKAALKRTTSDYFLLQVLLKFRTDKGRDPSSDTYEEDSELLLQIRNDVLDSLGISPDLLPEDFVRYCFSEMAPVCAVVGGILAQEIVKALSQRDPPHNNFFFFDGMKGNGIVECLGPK
T2 sequence (Q9UBT2 whole entry): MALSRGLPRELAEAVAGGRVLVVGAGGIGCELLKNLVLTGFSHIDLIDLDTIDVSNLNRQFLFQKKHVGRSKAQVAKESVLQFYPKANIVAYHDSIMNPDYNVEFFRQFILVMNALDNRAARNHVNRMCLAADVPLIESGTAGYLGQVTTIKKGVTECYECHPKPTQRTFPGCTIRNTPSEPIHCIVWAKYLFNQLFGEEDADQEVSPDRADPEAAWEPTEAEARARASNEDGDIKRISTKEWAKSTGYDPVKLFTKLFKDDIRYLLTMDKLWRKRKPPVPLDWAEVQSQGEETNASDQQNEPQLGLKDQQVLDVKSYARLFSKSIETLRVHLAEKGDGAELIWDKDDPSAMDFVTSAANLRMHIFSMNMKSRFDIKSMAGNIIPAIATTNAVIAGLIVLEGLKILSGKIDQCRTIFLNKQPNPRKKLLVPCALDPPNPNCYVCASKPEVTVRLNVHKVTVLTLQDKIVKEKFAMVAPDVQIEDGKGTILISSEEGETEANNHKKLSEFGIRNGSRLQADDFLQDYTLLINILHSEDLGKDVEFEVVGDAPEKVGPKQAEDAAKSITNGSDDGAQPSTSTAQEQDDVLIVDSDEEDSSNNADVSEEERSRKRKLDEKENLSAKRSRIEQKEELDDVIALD

[6] = molecular target: T3, Voltage-gated N-type calcium channel alpha-1B subunit/Amyloid beta A4 precursor protein-binding family A member 1 (Homo sapiens, UniProt Q00975+Q02410); format: protein assay
T3 sequence (Q00975 whole entry): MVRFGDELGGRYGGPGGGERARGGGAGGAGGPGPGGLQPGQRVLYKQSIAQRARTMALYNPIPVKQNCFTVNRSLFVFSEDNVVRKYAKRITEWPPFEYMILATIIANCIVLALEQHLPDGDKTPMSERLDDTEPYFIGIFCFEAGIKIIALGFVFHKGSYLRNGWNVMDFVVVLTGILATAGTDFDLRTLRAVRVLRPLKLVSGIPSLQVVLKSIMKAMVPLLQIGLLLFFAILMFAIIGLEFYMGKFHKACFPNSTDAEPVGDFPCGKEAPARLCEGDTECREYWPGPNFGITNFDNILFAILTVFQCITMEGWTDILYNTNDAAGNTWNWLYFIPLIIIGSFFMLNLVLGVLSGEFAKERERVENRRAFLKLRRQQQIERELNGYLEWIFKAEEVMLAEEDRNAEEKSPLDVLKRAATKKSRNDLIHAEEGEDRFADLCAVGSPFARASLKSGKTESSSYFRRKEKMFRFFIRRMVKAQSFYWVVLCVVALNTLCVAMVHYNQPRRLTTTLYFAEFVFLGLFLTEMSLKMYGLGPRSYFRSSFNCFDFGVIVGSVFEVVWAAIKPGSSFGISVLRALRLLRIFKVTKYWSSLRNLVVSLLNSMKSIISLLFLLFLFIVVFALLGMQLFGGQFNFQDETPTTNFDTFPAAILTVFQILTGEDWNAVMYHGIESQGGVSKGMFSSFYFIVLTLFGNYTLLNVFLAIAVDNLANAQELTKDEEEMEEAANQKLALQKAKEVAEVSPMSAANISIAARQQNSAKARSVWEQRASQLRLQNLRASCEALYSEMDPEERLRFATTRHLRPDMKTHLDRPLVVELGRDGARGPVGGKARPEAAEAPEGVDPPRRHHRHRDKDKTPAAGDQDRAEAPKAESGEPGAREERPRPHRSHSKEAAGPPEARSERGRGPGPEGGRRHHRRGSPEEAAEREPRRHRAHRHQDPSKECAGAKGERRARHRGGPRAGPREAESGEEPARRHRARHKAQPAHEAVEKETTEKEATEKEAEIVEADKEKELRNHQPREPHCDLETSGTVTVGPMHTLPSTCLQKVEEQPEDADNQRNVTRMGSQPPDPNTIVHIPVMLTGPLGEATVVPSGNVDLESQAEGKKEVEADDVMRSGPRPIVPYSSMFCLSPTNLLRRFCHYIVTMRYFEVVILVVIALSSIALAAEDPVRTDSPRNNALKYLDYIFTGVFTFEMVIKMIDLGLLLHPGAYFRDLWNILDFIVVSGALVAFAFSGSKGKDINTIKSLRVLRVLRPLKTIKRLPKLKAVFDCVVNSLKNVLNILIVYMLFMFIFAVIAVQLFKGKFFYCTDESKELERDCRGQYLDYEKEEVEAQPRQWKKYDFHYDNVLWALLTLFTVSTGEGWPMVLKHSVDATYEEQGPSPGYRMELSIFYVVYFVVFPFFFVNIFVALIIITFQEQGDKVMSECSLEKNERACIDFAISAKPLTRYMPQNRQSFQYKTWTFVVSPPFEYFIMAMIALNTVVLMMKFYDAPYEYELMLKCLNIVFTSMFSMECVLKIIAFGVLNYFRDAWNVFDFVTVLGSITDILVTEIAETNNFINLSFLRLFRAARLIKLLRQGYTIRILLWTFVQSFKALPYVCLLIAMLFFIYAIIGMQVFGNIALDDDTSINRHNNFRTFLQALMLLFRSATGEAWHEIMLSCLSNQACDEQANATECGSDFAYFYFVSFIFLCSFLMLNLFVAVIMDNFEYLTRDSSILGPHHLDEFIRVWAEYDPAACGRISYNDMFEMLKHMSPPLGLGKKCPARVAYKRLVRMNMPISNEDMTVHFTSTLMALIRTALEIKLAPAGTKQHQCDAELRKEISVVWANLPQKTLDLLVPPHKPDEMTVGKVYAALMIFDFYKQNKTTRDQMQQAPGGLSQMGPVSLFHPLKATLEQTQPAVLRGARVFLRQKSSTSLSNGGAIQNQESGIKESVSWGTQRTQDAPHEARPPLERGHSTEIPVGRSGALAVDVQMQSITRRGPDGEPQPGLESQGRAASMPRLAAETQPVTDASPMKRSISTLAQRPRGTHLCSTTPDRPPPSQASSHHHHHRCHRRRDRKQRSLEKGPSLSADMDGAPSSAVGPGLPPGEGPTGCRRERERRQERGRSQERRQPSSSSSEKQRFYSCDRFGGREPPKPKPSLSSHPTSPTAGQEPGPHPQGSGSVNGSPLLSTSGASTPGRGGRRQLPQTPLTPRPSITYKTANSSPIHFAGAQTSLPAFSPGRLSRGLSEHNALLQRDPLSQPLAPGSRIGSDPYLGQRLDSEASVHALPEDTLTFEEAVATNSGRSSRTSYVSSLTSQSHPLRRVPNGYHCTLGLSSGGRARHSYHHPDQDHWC
T3 sequence (Q02410 whole entry): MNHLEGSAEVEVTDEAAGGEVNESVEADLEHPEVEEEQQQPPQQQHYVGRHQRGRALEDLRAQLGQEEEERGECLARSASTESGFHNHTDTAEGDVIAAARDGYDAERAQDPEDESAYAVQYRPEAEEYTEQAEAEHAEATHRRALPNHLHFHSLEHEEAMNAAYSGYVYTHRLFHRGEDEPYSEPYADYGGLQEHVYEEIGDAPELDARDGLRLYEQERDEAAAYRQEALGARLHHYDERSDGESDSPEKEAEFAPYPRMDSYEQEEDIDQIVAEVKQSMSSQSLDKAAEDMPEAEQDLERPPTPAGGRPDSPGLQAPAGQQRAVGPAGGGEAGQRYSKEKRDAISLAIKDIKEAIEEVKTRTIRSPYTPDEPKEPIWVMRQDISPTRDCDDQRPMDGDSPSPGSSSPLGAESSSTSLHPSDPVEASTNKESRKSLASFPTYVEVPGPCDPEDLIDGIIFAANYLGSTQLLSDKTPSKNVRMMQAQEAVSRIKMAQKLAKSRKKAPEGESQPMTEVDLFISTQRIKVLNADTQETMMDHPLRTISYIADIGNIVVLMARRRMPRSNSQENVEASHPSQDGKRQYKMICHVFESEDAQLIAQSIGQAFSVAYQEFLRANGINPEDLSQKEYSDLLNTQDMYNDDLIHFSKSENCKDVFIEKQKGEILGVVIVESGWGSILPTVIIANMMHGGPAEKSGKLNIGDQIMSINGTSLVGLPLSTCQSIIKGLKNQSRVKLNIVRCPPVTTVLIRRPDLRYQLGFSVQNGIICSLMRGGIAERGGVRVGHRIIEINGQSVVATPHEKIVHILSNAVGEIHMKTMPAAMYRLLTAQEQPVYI

[7] = molecular target: T2, SUMO-activating enzyme; test: blockers of SAE1/SAE2–UBC9 SUMO transfer – biochemical, HTRF, uHTS, primary screen (AID 2006); format: protein-complex assay
[8] = molecular target: T3, Voltage-gated N-type calcium channel alpha-1B subunit/Amyloid beta A4 precursor protein-binding family A member 1; format: protein assay; remark: listed apart in the source
[9] = molecular target: Protein-tyrosine kinase 2-beta (Homo sapiens, UniProt Q14289);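 further: potency of inhibitors of PYK2 kinase phosphorylation of poly-GT substrate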
[10] = molecular target: SUMO E1/E2 (Homo sapiens, UniProt P63279+Q9UBE0+Q9UBT2); test: SAR analysis of SUMOylation using HTRF in an in-Vitro dose response assay. [Related pubchem assays (depositor defined):AID2006, AID2011, AID2018, AID2069, AID2658]; format: functional
SUMO E1/E2, sequence (Q9UBE0 whole entry): as the sequence (Q9UBE0 whole entry) above
SUMO E1/E2, sequence (Q9UBT2 whole entry): as the sequence (Q9UBT2 whole entry) above
SUMO E1/E2, sequence (P63279 whole entry): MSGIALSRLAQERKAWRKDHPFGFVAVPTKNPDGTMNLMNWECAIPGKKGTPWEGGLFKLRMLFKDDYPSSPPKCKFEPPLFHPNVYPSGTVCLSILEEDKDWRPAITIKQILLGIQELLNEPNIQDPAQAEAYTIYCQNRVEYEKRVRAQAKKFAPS

[11] = molecular target: T3, Voltage-gated N-type calcium channel alpha-1B subunit/Amyloid beta A4 precursor protein-binding family A member 1; test: disruptors of Mint-PDZ/N-type channel peptide interaction – biochemical, HTRF, set 2, SAR follow-up (AID 434980); format: functional
[12] = molecular target: T3, Voltage-gated N-type calcium channel alpha-1B subunit/Amyloid beta A4 precursor protein-binding family A member 1; test: disruptors of Mint-PDZ/N-type channel peptide interaction – biochemical, HTRF, SAR follow-up (AID 2489); format: functional
[13] = molecular target: DNA (cytosine-5)-methyltransferase 1 (Homo sapiens, UniProt P26358); test: inhibition of DNA methylation by DNMT1 – biochemical, fluorescent molecular beacon, confirmation (AID 602386); format: functional
[14] = molecular target: T4, Probable nicotinate-nucleotide adenylyltransferase (Staphylococcus aureus (strain N315), UniProt P65502); format: functional, Staphylococcus aureus subsp. aureus N315;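 on IC50 Mean: confirmatory dose-response retesting of NadD inhibitor hits first found in an ultra-high-throughput screen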
T4 sequence (P65502 whole entry): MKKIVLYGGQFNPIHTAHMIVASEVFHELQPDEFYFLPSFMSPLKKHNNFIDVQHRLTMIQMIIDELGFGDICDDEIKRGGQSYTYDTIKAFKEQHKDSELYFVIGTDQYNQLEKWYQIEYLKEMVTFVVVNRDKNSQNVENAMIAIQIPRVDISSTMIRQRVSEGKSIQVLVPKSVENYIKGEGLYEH

[15] = molecular target: T4, Probable nicotinate-nucleotide adenylyltransferase; format: functional, Staphylococcus aureus subsp. aureus N315; settings: read-out: IC50_Mean
[16] = molecular target: T5, Rac GTPase-activating protein 1 (Homo sapiens, UniProt Q9H0H5); test: blockers of MgcRacGAP-driven Rac1 GTP hydrolysis – biochemical, ADP Hunter fluorescence, primary and confirmatory, confirmation (AID 624330); format: functional
T5 sequence (Q9H0H5 whole entry): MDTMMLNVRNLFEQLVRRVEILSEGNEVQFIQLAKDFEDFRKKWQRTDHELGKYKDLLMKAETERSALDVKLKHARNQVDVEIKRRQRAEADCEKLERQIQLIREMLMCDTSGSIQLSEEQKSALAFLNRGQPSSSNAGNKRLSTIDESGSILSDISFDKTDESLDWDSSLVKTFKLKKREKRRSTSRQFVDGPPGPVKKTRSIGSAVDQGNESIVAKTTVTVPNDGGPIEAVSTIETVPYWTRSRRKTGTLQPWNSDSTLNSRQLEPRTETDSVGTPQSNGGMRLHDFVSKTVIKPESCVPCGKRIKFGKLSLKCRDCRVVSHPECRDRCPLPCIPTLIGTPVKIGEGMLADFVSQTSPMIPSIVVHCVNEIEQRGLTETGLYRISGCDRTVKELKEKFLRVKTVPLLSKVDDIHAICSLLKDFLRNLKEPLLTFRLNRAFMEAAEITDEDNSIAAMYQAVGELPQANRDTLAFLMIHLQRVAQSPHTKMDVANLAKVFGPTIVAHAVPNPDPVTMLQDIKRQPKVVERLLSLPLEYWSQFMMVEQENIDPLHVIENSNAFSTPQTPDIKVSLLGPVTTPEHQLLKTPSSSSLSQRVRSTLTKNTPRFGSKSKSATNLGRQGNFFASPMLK

[17] = molecular target: Albumin (Bos taurus, UniProt P02769); test: Counterscreen for inhibitors of T-cell receptor (TCR)-CD3 interaction: Fluorescence-based biochemical high throughput dose response assay to identify inhibitors of T-cell receptor (TCR)-CD3 interaction using a TAMRA-labeled BSA probe.; format: functional
[18] = tested on: Candida albicans; test: antifungal activity against resistant Candida strain – CaCi-8, fluconazole, Alamar Blue, dry powder, dose response (AID 488807); format: functional, organism-based

CC(C)(C)c1cc[n+](-c2[n-]c(=O)sc2C=NN=C(S)Nc2ccccc2)cc1
AC50 [1]: 65.5 µM (active)

O=C(N/N=C/c1ccc(F)cc1)c1cc(-c2ccco2)nc2ccccc12
IC50 [2]: > 49.8 µM (not active) | IC50 [3]: 2.97 µM (active) | IC50 [4]: > 79.4 µM (not active) | IC50 [5]: 2.28 µM (active) | IC50 [6]: 8.83 µM (active) | IC50 [7]: 10.6 µM (active) | IC50 [8]: 6.44 µM (active) | IC50 [9]: 2.01 µM (active) | IC50 [10]: 4.33 µM (active) and 8.06 µM (active) | IC50 [11]: 5.57 µM (active) | IC50 [12]: 14.6 µM (active) | IC50 [13]: 5.57 µM (active) | IC50 [14]: 10.8 µM (active) | IC50 [15]: 27.1 µM (active) | IC50 [16]: 108 µM (active) | IC50 [17]: > 94.1 µM (inactive)

COC(=O)Cn1nc(-c2ccc(Cl)cc2)c2ccccc21
AC50 [18]: 2.16 µM (active)
